Patent US11739122B2, “Glycopeptide antibiotic compounds, methods for producing the same, and uses thereof” (Academia Sinica, priority 2019, dated 2023)
Values after ≈ are worked out from the molar mass of the structure shown. Blank lines part the entries; values can stand above or below the molecule they belong to.

Tests used:
[1] = tested on: A. baumannii ATCC 19606; experiment: MIC, broth microdilution; format: cell-based, Acinetobacter baumannii
Procedure: (§1) Determination of Minimal Inhibitory Concentration (MIC) for Vancomycin, Teicoplanin and Tei-Analogs Versus Selected Strains
(§2) MICs were determined by the broth microdilution method. Specifically, 12 Colonies of the test strain were picked up from 18-24 hour agar cultures and freshly inoculated into broth mediums until reaching the turbidity of a 0.5 McFarland standard. The broth culture was adjusted with broth medium to approximately 1×10^8 CFUmL^−1. […] The plates were incubated in 37° C. for 18-24 hours and monitored for the wells of the positive control, where cells grew, and the wells of the negative control, where wells should not grow. The MIC value was determined for the concentration of a test compound, at which there was no visible growth in the well.

[2] = tested on: A. baumannii ATCC 19606; experiment: Thin-section TEM, cell wall morphology; format: cell-based, Acinetobacter baumannii; conditions: AB ATCC 19606; 24 50 μM, colistin 3.2 μM, combination 25 μM each
Procedure: Thin-Section Transmission Electron Microscopy (TEM)
An overnight cultured MRSA ATCC 700787, VRE ATCC 700221 or A. baumannii ATCC 19606 was individually sub-cultured into a fresh medium. Bacteria at the exponential phase were treated with a given test compound at a concentration of 4×MIC for 1-4 hour at 37° C. and followed by wash and resuspension in PBS. Bacteria cells for the TEM analysis were prepared as follows: Cells were fixed with 2.5% glutaraldehyde for 30 minutes. After the fixation, cells were washed twice with PBS and fixed with 1% osmium tetraoxide for another 30 minutes. All the buffer was removed with distilled water. The cells were then stained with 1% uranyl acetate and dehydrated with a graded ethanol solution. Cells were embedded in resin. Finally, each sample was cut into thin slices of approximately 90 nm with a glass knife and stained with uranyl acetate. The images of bacterial morphological were recorded.

[3] = tested on: MRSA ATCC 43300; experiment: MIC, broth microdilution; format: cell-based, Staphylococcus aureus; conditions: MRSA ATCC 43300
Procedure: as §1, §2

[4] = tested on: MRSA ATCC 700698 hVISA; experiment: MIC, broth microdilution; format: cell-based, Staphylococcus aureus; conditions: MRSA ATCC 700698 hVISA
Procedure: as §1, §2

[5] = tested on: MRSA ATCC 700787 VRSA; experiment: MIC, broth microdilution; format: cell-based, Staphylococcus aureus; conditions: MRSA ATCC 700787 VRSA
Procedure: as §1, §2

[6] = tested on: MRSA ATCC 700789 VRSA; experiment: MIC, broth microdilution; format: cell-based, Staphylococcus aureus; conditions: MRSA ATCC 700789 VRSA
Procedure: as §1, §2

[7] = tested on: MRSA ATCC BAA-38; experiment: MIC, broth microdilution; format: cell-based, Staphylococcus aureus; conditions: MRSA ATCC BAA-38
Procedure: as §1, §2

[8] = tested on: MRSA ATCC BAA-39; experiment: MIC, broth microdilution; format: cell-based, Staphylococcus aureus; conditions: MRSA ATCC BAA-39
Procedure: as §1, §2

[9] = tested on: MRSA ATCC BAA-44; experiment: MIC, broth microdilution; format: cell-based, Staphylococcus aureus; conditions: MRSA ATCC BAA-44
Procedure: as §1, §2

[10] = tested on: S. aureus ATCC 29213; experiment: MIC, broth microdilution; format: cell-based, Staphylococcus aureus; conditions: SA ATCC 29213
Procedure: as §1, §2

[11] = tested on: E. faecalis ATCC 29302; experiment: MIC, broth microdilution; format: cell-based; conditions: EF ATCC 29302
Procedure: as §1, §2

[12] = tested on: VRE ATCC 700221 (vanA); experiment: MIC, broth microdilution; format: cell-based, enterococci; conditions: VRE ATCC 700221 (vanA)
Procedure: as §1, §2

[13] = tested on: VRE ATCC 700425 (vanC); experiment: MIC, broth microdilution; format: cell-based, enterococci; conditions: VRE ATCC 700425 (vanC)
Procedure: as §1, §2

[14] = tested on: VRE ATCC 700802 (vanB); experiment: MIC, broth microdilution; format: cell-based, enterococci; conditions: VRE ATCC 700802 (vanB)
Procedure: as §1, §2

[15] = molecular target: Dbv27 (Nonomuraea gerenzanensis, UniProt Q7WZ64); experiment: ITC binding affinity; conditions: ITC versus Dbv27
Procedure: Isothermal Titration Calormetry (ITC) Analysis
A stock solution (50 mM) was prepared by dissolving r6,GlcNAc pseudoaglycone (9) in 50% DMSO. The 1 mM protein solutions of Orf2*, Orf2*T and Dbv27 were prepared in a 50 mM HEPES buffer solution at pH 8.0. The solution (50 mM HEPES, pH8.0 and 10% DMSO) that contained compound 9 (1 mM) or S-adenosylmethionine (SAM) (1 mM) in a 40 μL injection syringe was titrated into the Orf2*, Orf2*T or Dbv27 (0.1 mM) protein solution, which was placed in the sample cell of a 200 μL volume. Each titration consisted of 16 injections of a 2 μL4 s^−1 duration in an interval of 150 seconds. Data analysis was performed by software.

[16] = tested on: A. baumannii ATCC 19606; experiment: In vivo efficacy, intranasal A. baumannii infection; set-up: species or system mice; conditions: BAL fluid, 24 hours post-inoculation; 24 and kanamycin 30, amikacin 15 mgkg^−1
Procedure: In Vivo Efficacy of r6,N-Acyl-Glc Tei Analogs
Female C57BL/6 mice (6 weeks of age; about 16-19 g, 3-5 mice per group) were intraperitoneally inoculated with 300 μL of MRSA ATCC 700787 suspension (about 10^7 CFUmL^−1). For intranasal A. baumannii (ATCC 19606) inoculation, mice were anesthetized, and inoculated intranasally with about 10^7-10^8 CFUmL^−1 A. baumannii in 50 μL of PBS. Treatments were started 1 hour after the bacterial challenge. The dose administration to mice was set as follows: teicoplanin (1) or r6,C8-Tei analog (14) 20 mgkg^−1 was intraperitoneally injected to MRSA-infected mice; amikacin (15 mgkg^−1), teicoplanin (1) (30 mgkg^−1), kanamycin (30 mgkg^−1) or r1,Me2-r6,guanidino-C8 analog (24) (30 mgkg^−1) was intraperitoneally injected to AB-infected mice. To assess bacteraemia, the test animals were sacrificed to collect 1 mL of peritoneal fluid (PF) for MRSA counting or the lungs were lavaged to collect 0.6 mL bronchoalveolar lavage (BAL) fluid for A. baumannii counting.
For AB (ATCC 19606), female C57BL/6 mice were first anesthetized by intraperitoneal injection of zoletil and then intranasally inoculated with 50 μL of bacteria in a PBS solution (about 10^7-10^8 CFUmL^−1). The treatment started 1 hour post-infection with a single dose of compound 24 (30 mgkg^−1), compound 1 (30 mgkg^−1), amikacin (15 mgkg^−1), or kanamycin (30 mgkg^−1), where saline/compound 1 and amikacin/kanamycin respectively served as negative and positive controls. To assess the density of bacteraemia, the lungs of mice were lavaged to collect 0.6 mL bronchoalveolar lavage (BAL) fluid from each mouse at 24 hours post-inoculation. For saline/compound 1 treated controls, the bacterial load was counted (about 4 log CFUmL^−1, FIG. 4B), where the bacterial load was reduced by 0.5 or 1 log CFUmL^−1 with the treatment of amikacin/kanamycin or compound 24, respectively.

[17] = A. baumannii ATCC 19606, Table 3, first figure of cell
[18] = A. baumannii ATCC 19606, Table 3, second figure of cell

Sequence of Dbv27 (Q7WZ64 entry or part of it): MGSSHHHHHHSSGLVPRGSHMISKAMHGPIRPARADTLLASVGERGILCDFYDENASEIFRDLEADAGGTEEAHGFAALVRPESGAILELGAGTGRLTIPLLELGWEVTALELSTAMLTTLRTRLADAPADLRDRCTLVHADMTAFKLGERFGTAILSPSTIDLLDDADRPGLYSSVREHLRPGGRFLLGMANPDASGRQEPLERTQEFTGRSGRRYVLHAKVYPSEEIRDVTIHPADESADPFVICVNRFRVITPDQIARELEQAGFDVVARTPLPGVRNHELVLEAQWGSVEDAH

Molecule: colistin sulfate [reference compound]
MIC on AB ([1]; A. baumannii ATCC 19606): 1.98 µg/mL | MIC [1, 17]: 1.56 µM | MIC [1, 18]: 1.98 µg/mL | cell membrane/cell wall morphology by TEM [2]: intactness of cell membrane/cell wall was severely damaged

MIC [3]: 0.25 µg/mL (≈ 0.175 µM) | MIC [4]: 1 µg/mL (≈ 0.699 µM) | MIC [5]: 0.5 µg/mL (≈ 0.35 µM) | MIC [6]: 2 µg/mL (≈ 1.4 µM) | MIC [7]: 0.25 µg/mL (≈ 0.175 µM) | MIC [8]: 0.125 µg/mL (≈ 0.0874 µM) | MIC [9]: 0.125 µg/mL (≈ 0.0874 µM) | MIC [10]: 0.25 µg/mL (≈ 0.175 µM) | MIC [12]: >128 µg/mL | MIC [13]: 4 µg/mL (≈ 2.8 µM) | MIC [14]: 4 µg/mL (≈ 2.8 µM) | MIC [1, 17]: > 200 µM | MIC [1, 18]: > 285.67 µg/mL
Molecule: CC(=O)N[C@H]1[C@H](O[C@@H]2c3ccc(c(Cl)c3)Oc3cc4cc(c3O)Oc3ccc(cc3Cl)C[C@H]3NC(=O)[C@H](N(C)C)c5ccc(O)c(c5)Oc5cc(O)cc(c5)[C@H](NC3=O)C(=O)N[C@H]4C(=O)N[C@H]3C(=O)N[C@@H]2C(=O)N[C@H](C(=O)O)c2cc(O)cc(O)c2-c2cc3ccc2O)O[C@H](CO)[C@@H](O)[C@@H]1O [Compound 10, r1,Me2-6,GlcNAc Tei-pseudoaglycone]
MIC [11]: 2 µg/mL (≈ 1.4 µM)

Molecule: C[S+](CC[C@H](N)C(=O)[O-])C[C@H]1O[C@@H](n2cnc3c(N)ncnc32)[C@H](O)[C@@H]1O (some centres unmarked) [SAM, S-adenosylmethionine, reference compound]
Kd [15]: 10 µM

Molecule: NCC[C@H](O)C(=O)N[C@@H]1C[C@H](N)[C@@H](O[C@H]2O[C@H](CN)[C@@H](O)[C@H](O)[C@H]2O)[C@H](O)[C@H]1O[C@H]1O[C@H](CO)[C@@H](O)[C@H](N)[C@H]1O [amikacin]
bacterial load reduced by [16]: 0.5 log CFUmL^−1
